Data taken from patent US20240262812A1, “N-SUBSTITUTED PHENYLSULFONAMIDE COMPOUND AND USE THEREOF” (Shanghai Leado Pharmatech Co., Ltd., priority 2021, published 2024).

These molecules were tested against T1, mTRPA1 (Mus musculus, UniProt Q8BLA8) (assay: IonWorks Barracuda (IWB) automated patch clamp, TRPA1 inhibitory activity). Conditions: HEK293 cells stably expressing mTRPA1, current induced by AITC, amplitude at +100 mV; read-out: IC50 (inhibition activity on TRPA1).
T1 construct: expressed in transfected cells
Type: cell-based
Procedure: In this example, the inhibitory activity of the compounds prepared in some examples of the present invention on transient receptor potential channel protein ankyrin 1 (TRPA1) was tested. Among them, compound of formula A (WO2010075353) was used as the positive control compound: […]
Test method using IonWorks Barracuda (IWB) automated patch clamp detection: HEK293 cells stably expressing mTRPA1 were placed in the T175 culture flask with DMEM medium containing 15 µg/mL Blasticidin S HCl, 200 µg/mL Hygromycin B and 10% FBS, and cultured in 37° C., 5% CO2 incubator. When the cell density reached about 80%, the culture medium was removed, washed once with phosphate buffered saline (PBS) without calcium and magnesium. 3 mL of Trypsin was added to digest for 2 min, 7 mL of culture solution was added to terminate the digestion. The cells were collected to 15 mL centrifuge tube and centrifuged at 800 rpm for 3 min. After the supernatant was removed, the cells were added to appropriate volume of extracellular fluid for re-suspending, and the cell density was controlled at 2-3×10^6/mL for use in IWB experiment. Extracellular fluid formulation (in mM): 140 NaCl, 5 KCl, 1 MgCl2, 10 HEPES, 0.5 EGTA, 10 Glucose (pH 7.4); intracellular fluid formulation (in mM): 140 CsCl, 10 HEPES, 5 EGTA, 0.1 CaCl2, 1 MgCl2 (pH 7.2). 28 mg/mL of amphotericin B was freshly prepared with DMSO on the day of experiment, and then final concentration of 0.1 mg/mL was prepared with intracellular fluid.
Population patch clamp (PPC) plate was used in IWB experiment. The entire detection process was automatically carried out by the instrument, that is, extracellular fluid was added into 384 wells of PPC plate, and after intracellular fluid was added under PPC plate (in plenum), 6 µL of cell fluid was added for sealing test, and finally the intracellular fluid in plenum was replaced with intracellular fluid containing amphotericin B to establish a whole-cell recording mode after perforating sealed cells. The sampling frequency for recording TPRA1 current was 10 kHz, the cells were clamped at 0 mV, the voltage stimulation command (channel protocol) was a ramp voltage from −100 mV to +100 mV for 300 ms. This voltage stimulation was applied every 10 s, mTRPA1 current was induced by 300 µM AITC.
Data recording and current amplitude measurement export were carried out by IWB software (version 2.5.3, Molecular Devices Corporation, Union City, CA). No statistics was recorded for holes with sealing impedance lower than 20 MΩ. The original current data was corrected by software for leak subtraction. TRPA1 current amplitude was measured at +100 mV. […] If IC50 value of HC030031 exceeded 3 times of the average IC50 value previously obtained on each plate, it would be re-tested. The dose-effect curve of compounds and IC50 were fitted and calculated by GraphPad Prism 5.02 (GraphPad Software, San Diego, CA).
Some compounds of the present invention were subjected to IC50 inhibition activity test using the IonWorks Barracuda (IWB) automated patch clamp detection method.

T1 sequence (Q8BLA8 whole entry): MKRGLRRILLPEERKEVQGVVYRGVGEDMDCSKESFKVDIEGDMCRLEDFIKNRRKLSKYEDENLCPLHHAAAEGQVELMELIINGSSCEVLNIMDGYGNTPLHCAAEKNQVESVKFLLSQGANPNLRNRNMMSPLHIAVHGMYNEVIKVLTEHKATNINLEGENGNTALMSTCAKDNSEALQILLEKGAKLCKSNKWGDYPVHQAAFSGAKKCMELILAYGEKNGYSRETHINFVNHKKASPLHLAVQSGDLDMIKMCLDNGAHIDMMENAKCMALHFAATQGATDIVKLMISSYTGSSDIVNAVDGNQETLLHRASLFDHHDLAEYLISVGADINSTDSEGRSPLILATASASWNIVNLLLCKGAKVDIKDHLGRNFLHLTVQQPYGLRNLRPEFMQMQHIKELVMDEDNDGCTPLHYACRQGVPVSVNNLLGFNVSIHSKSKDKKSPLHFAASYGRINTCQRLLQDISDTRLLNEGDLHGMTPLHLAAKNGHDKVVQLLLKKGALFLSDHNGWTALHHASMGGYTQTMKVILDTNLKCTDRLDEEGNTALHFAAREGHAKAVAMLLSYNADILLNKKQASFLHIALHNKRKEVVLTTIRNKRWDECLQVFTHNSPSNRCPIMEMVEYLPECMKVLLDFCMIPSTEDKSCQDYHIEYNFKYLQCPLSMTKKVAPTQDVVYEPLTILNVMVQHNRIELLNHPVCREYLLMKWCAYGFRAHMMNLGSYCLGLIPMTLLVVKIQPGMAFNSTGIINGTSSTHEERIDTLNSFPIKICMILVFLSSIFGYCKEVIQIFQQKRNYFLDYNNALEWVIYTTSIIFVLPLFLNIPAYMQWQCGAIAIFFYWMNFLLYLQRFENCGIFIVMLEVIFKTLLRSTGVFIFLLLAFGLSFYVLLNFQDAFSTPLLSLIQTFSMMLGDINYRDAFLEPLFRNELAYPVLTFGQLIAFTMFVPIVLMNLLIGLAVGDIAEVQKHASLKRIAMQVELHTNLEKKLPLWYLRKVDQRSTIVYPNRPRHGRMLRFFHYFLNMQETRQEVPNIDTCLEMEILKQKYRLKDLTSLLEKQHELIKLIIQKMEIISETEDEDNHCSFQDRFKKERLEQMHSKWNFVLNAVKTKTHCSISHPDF

SMILES	IC50
CNCc1ccc(-c2ccco2)c(NS(=O)(=O)c2ccc3ccccc3c2)c1 [IA-14, N-(2-(furan-2-yl)-5-((methylamino)methyl)phenyl)naphthalene-2-sulfonamide]	50 to 100 µM
CNCc1ccc(-c2cnn(C)c2)c(NS(=O)(=O)c2ccccc2)c1 [IA-56, N-(2-(1-methyl-1H-pyrazole-4-yl)-5-((methylamino)methyl)phenyl)benzenesulfonamide]	10 to 20 µM
CNCc1ccc(-c2c(C)nn(C)c2C)c(NS(=O)(=O)c2ccccc2)c1 [IA-57, N-(5-((methylamino)methyl)-2-(1,3,5-trimethyl-1H-pyrazole-4-yl)phenyl) benzenesulfonamide]	20 to 50 µM
NCc1ccc(-c2ccco2)c(NS(=O)(=O)c2ccc(F)cc2)c1 [ID-2, N-(5-(aminomethyl)-2-(furan-2-yl)phenyl)-4-fluorobenzenesulfonamide]	1 to 5 µM
CNCc1ccc(-c2ccco2)c(NS(=O)(=O)c2ccc(C)cc2)c1 [IA-10, 4-Methyl-N-(2-(furan-2-yl)-5-((methylamino)methyl)phenyl)benzenesulfonamide]	1 to 5 µM
CN(C)Cc1ccc(NS(=O)(=O)c2ccsc2)c(-c2ccco2)c1 [IJ-1, N-(4-((dimethylamino)methyl)-2-(furan-2-yl)phenyl)thiophene-3-sulfonamide]	1 to 5 µM
C[C@H]1CCCN1c1ccc(-c2csc(NC(=O)Cn3cnc4c3c(=O)n(C)c(=O)n4C)n2)cc1F [Compound of formula A, reference compound]	50 to 100 µM
CNCc1ccc(-c2ccoc2)c(NS(=O)(=O)c2ccc(F)cc2)c1 [IA-41, 4-Fluoro-N-(2-(furan-3-yl)-5-((methylamino)methyl)phenyl)benzenesulfonamide]	5 to 10 µM
CNCc1ccc(-c2ccco2)c(NS(=O)(=O)c2ccc(C(F)(F)F)cc2)c1 [IA-13, 4-Trifluoromethyl-N-(2-(furan-2-yl)-5-((methylamino)methyl)phenyl)benzenesulfonamide]	10 to 20 µM
O=S(=O)(Nc1cc(CNCC(F)(F)F)ccc1-c1ccco1)c1ccccc1 [IA-25]	20 to 50 µM
O=S(=O)(Nc1cc(CNCC(F)(F)F)ccc1-c1ccco1)c1ccccc1 [IA-62]	50 to 100 µM
NC(Cc1ccccc1)c1ccc(NS(=O)(=O)c2ccccc2)c(-c2ccco2)c1 (centres unmarked) [IU-8, N-(4-(1-amino-2-phenylethyl)-2-(furan-2-yl)phenyl)benzenesulfonamide]	10 to 20 µM
CNCc1ccc(-c2ccco2)c(NS(=O)(=O)c2cccs2)c1 [IA-20, N-(2-(furan-2-yl)-5-((methylamino)methyl)phenyl)thiophene-2-sulfonamide]	1 to 5 µM

Now from value to molecule:

IC50	SMILES
1 to 5 µM	CNCc1ccc(-c2ccco2)c(NS(=O)(=O)c2ccccc2)c1 [IA-4, N-(2-(furan-2-yl)-5-((methylamino)methyl)phenyl)benzenesulfonamide]
< 1 µM	CCNCc1ccc(NS(=O)(=O)c2ccsc2)c(-c2ccco2)c1 [IA-32, N-(4-((ethylamino)methyl)-2-(furan-2-yl)phenyl)thiophene-3-sulfonamide]
5 to 10 µM	CNCc1ccc(-c2ncc(C)s2)c(NS(=O)(=O)c2ccccc2)c1 [IA-59, N-(5-((methylamino)methyl)-2-(5-methylthiazol-2-yl)phenyl)benzenesulfonamide]
20 to 50 µM	CNCc1ccc(-c2ccc[nH]2)c(NS(=O)(=O)c2ccccc2)c1 [IA-50, N-(5-((methylamino)methyl)-2-(1H-pyrrole-2-yl)phenyl)benzenesulfonamide]
5 to 10 µM	CNCc1ccc(-c2ccco2)c(NS(=O)(=O)c2ccc3ncsc3c2)c1 [IA-16, N-(2-(furan-2-yl)-5-((methylamino)methyl)phenyl)benzothiazole-6-sulfonamide]
1 to 5 µM	O=S(=O)(Nc1cc(C2CCCN2)ccc1-c1ccco1)c1ccccc1 (centres unmarked) [IW, N-(2-(furan-2-yl)-5-(pyrrolidin-2-yl)phenyl)benzenesulfonamide]
< 1 µM	NC(c1ccc(NS(=O)(=O)c2ccccc2)c(-c2ccco2)c1)C1CC1 (centres unmarked) [IU-6, N-(4-(amino(cyclopropyl)methyl)-2-(furan-2-yl)phenyl)benzenesulfonamide]
1 to 5 µM	CNCc1ccc(-c2cccs2)c(NS(=O)(=O)c2ccsc2)c1 [IA-48, N-(2-(thiophene-2-yl)-5-((methylamino)methyl)phenyl)thiophene-3-sulfonamide]
< 1 µM	CCC(N)c1ccc(NS(=O)(=O)c2ccccc2)c(-c2ccco2)c1 (centres unmarked) [IU-3, N-(4-(1-aminopropyl)-2-(furan-2-yl)phenyl)benzenesulfonamide]
10 to 20 µM	CNCc1ccc(-c2ccco2)c(NS(=O)(=O)c2ccccc2OC(F)(F)F)c1 [IA-8, 2-Trifluoromethoxy-N-(2-(furan-2-yl)-5-((methylamino)methyl)phenyl)benzenesulfonamide]
1 to 5 µM	CNCc1ccc(-c2cccs2)c(NS(=O)(=O)c2ccccc2)c1 [IA-46, N-(2-(thiophene-2-yl)-5-((methylamino)methyl)phenyl)benzenesulfonamide]
20 to 50 µM	CNCc1ccc(NS(=O)(=O)c2ccccc2)cc1-c1ccco1 [IA-36, N-(3-(furan-2-yl)-4-((methylamino)methyl)phenyl)benzenesulfonamide]
20 to 50 µM	CNCc1ccc(-c2ccco2)c(NS(=O)(=O)c2ccc(Cl)s2)c1 [IA-22, 5-Chloro-N-(2-(furan-2-yl)-5-((methylamino)methyl)phenyl)thiophene-2-sulfonamide]
1 to 5 µM	CNCc1ccc(-c2cc[nH]n2)c(NS(=O)(=O)c2ccccc2)c1 [IA-54, N-(5-((methylamino)methyl)-2-(1H-pyrazol-5-yl)phenyl)benzenesulfonamide]
20 to 50 µM	CNCc1ccc(-c2cn[nH]c2)c(NS(=O)(=O)c2ccccc2)c1 [IA-52]
50 to 100 µM	CNCc1ccc(-c2c(C)n[nH]c2C)c(NS(=O)(=O)c2ccccc2)c1 [IA-58, N-(2-(3,5-dimethyl-1H-pyrazole-4-yl)-5-((methylamino)methyl)phenyl)benzenesulfonamide]
5 to 10 µM	CNCc1ccc(-c2ccco2)c(NS(=O)(=O)c2cccnc2)c1 [IA-17, N-(2-(furan-2-yl)-5-((methylamino)methyl)phenyl)pyridine-3-sulfonamide]
< 1 µM	CCCC(N)c1ccc(NS(=O)(=O)c2ccccc2)c(-c2ccco2)c1 (centres unmarked) [IU-4, N-(4-(1-aminobutyl)-2-(furan-2-yl)phenyl)benzenesulfonamide]
10 to 20 µM	CNCc1ccc(-c2cnc[nH]2)c(NS(=O)(=O)c2ccccc2)c1 [IA-61, N-(2-(1H-imidazol-5-yl)-5-((methylamino)methyl)phenyl)benzenesulfonamide]
